Data taken from patent publication US12043670B2, “Anti-BCMA antibody-drug conjugates and methods of use” (Eisai R&D Management Co., Ltd., priority 2020, dated 2024).
Read-outs that look alike come from different tables or passages of the source.

What was measured:
[1] = biological target: T1, SF3b complex (Homo sapiens, UniProt O75533+Q7RTV0); experiment: SF3B1 binding / scintillation proximity assay (SPA); conditions: competition with 2.5 nM [3H]-pladienolide B probe
T1 construct: endogenous in cells; host or cells: nuclear extracts
Experimental: A scintillation proximity assay was performed to measure the binding affinity of compounds (“payloads”) to the SF3b complex. Batch immobilization of anti-SF3B1 antibody (MBL) to anti-mouse PVT SPA scintillation beads (PerkinElmer) was prepared. For every 2.5 mg of nuclear extracts, 5 μg of anti-SF3B1 antibody and 1.5 mg of beads were mixed in 150 μL PBS. The antibody-bead mixture was incubated for 30 min at room temperature (RT) and centrifuged at 18,000 g for 5 min. 150 μL PBS was used to resuspend every 1.5 mg antibody-bead mixture. The beads were suspended and added to the prepared nuclear extracts. The slurry was incubated for 2 hours at 4° C. with gentle mixing. The beads were then collected by centrifuging at 18,000 g for 5 min, and washed twice with PBS+0.1% Triton X-100. After a final centrifugation step, every 1.5 mg of beads was suspended with 150 μL of PBS. SF3b complexes were tested for [^3H]-labeled pladienolide B probe binding ([^3H]-PB), synthesized as previously described (Kotake et al. (2007) Nat Chem Biol. 3(9):570-5). 100 μL binding reactions were prepared with 50 μL bead slurry and by adding varying concentrations of PB or PB-OH, and after 30 min pre-incubation, 2.5 nM of [^3H]-PB was added. The mixture was incubated for 30 min, and luminescence signals were read using a MicroBeta2 Plate Counter (PerkinElmer). […]

[2] = test system: MM1.S cells; experiment: CellTiter-Glo cell viability, MM1.S; format: cell-based, human; conditions: for GI50: Homo sapiens
[3] = test system: MM1.R cells; experiment: CellTiter-Glo cell viability, MM1.R; format: cell-based, human; conditions: for GI50: Homo sapiens, MM.1R
[4] = test system: OPM2 cells; experiment: CellTiter-Glo cell viability, OPM2 (normal serum); format: cell-based, human; conditions: for GI50: Homo sapiens
[5] = test system: NCI-H929 cells; experiment: CellTiter-Glo cell viability, NCI-H929 (normal serum); format: cell-based, human; conditions: for GI50: Homo sapiens
[6] = test system: MOLP8 cells; experiment: CellTiter-Glo cell viability, MOLP8; format: cell-based, human
[7] = test system: LP-1 cells; experiment: 6-day CellTiter-Glo cell viability, LP-1; format: cell-based, human
[8] = test system: EJM cells; experiment: 6-day CellTiter-Glo cell viability, EJM; format: cell-based, human
[9] = test system: KMS-11 cells; experiment: 6-day CellTiter-Glo cell viability, KMS-11; format: cell-based, human
[10] = Caco-2 permeability; format: in vitro ADME; conditions: human
Experimental: Caco-2 cells were cultured for 21 days in transwell 24-well plates at 37° C., 95% humidity, 5% CO2. Integrity of cell monolayer was confirmed by TEER (transepithelial electrical resistance) and Lucifer yellow. Payloads were spiked in duplicate at 10 μM, separately, on both sides of the cell monolayer. Permeability rates from the apical to basolateral (A-B) direction and the basolateral to apical (B-A) direction were determined by sampling aliquots from both chambers immediately after treatment (t=0) and following incubation for 2 hours. Samples were protein precipitated with organic solvent containing internal standard and analyzed by LC-MS/MS (SCIEX; API 5500). The area ratio responses of payload/internal standard over time in both directions were used to generate permeability (cm/sec) values. Efflux ratio was calculated by dividing B-A/A-B. Control compounds for low and high permeability and efflux behaved as expected.

[11] = Chemical stability in buffer pH 5.5; format: physicochemical; conditions: Mcilvane (Citrate-Phosphate) buffer pH 5.5, 37° C., read-out: Stability %, Mean, t1/2 pH 5.5 (converted)
Experimental: Payloads were incubated in Mcilvane (Citrate-Phosphate) buffer, pH 5.5 (Boston Bioproducts; #BB-2466) at a final concentration of 20 μM (less than 0.5% DMSO from stock solution). The payload solution and the internal standard were pipetted into 96-well plates, run on UPLC (Waters Aquity H class), and analyzed for initial chromatographic signal (t=0). The column was a Waters UPLC HSS T31.8 μm 2.1×50 mm column (#186003538). A gradient of mobile phase A from 95% to 10% was employed over 1 min, where A was 0.1% formic acid in water and mobile phase B was 0.1% formic acid in acetonitrile (flow rate 0.9 mL/min). The remainder of the payload solution was kept in a plate shaker at 37° C. (Eppendorf ThermoMixer). Sample analyses by UPLC were repeated at 24, 72, and 96 hours post-incubation at 37° C. The area ratio response of the payload and internal standard was determined for three time points: time 0, day 1, and either day 3 or day 4. Time 0 was set to 100. The area ratio responses of the later time points were compared to time 0. Percent remaining was calculated as follows: (Area Ratio day X/Area Ratio time 0)*100=% remaining. The slope of the line was calculated in Excel comparing the log of % remaining and time point.

For `CC[C@H](O)[C@@H](C)[C@H]1O[C@@H]1C[C@@](C)(O)/C=C/C=C(\C)[C@H]1OC(=O)C[C@H](O)CC[C@@](C)(O)[C@@H](OC(=O)N2CCNCC2)/C=C/[C@@H]1C` [D1, (2S,3S,6S,7R,10R,E)-7,10-dihydroxy-2-((R,2E,4E)-6-hydroxy-7-((2R,3R)-3-((2R,3S)-3-hydroxypentan-2-yl)oxiran-2-yl)-6-methylhepta-2,4-dien-2-yl)-3,7-dimethyl-12-oxooxacyclododec-4-en-6-yl piperazine-1-carboxylate], the IC50 [1] was 21.3 nM, the GI50 ([2]; MM1.S, 96 h, read-out: CTGlo Mean GI50 MM1.S 96 h) was 37.1 nM and the GI50 ([2]; MM1.S, 144 h) was 88.4 nM. For the same compound, the “AUC (nM * % relative viability)” value ([2]; MM1S cells, 6 days) was 644.3501 nM * % relative viability, the LD50 ([2]; MM1S cells, 6 days, CellTiter-Glo) was 302.924 nM and the RminAve ([2]; MM1S cells, 6 days, negative = cell death vs T0) was −99.8996%. The “CTGlo Mean LD50 MM1.S 96 h” value ([2]; payload alone, MM1.S, 96 h) was 98.2 nM, the GI50 ([3]; 96 h, read-out: CTGlo Mean GI50 MM1.R 96 h) was 147 nM and the GI50 ([3]; 144 h) was 89.3 nM. For the same compound, the “AUC (nM * % relative viability)” value ([3]; MM1R cells, 6 days) was 640.2408 nM * % relative viability, the LD50 ([3]; MM1R cells, 6 days, CellTiter-Glo) was 283.0093 nM and the RminAve ([3]; MM1R cells, 6 days, negative = cell death vs T0) was −99.9109%. The “CTGlo Mean LD50 MM1.R 96 h” value ([3]; payload alone, MM1.R, 96 h) was 510.8 nM, the GI50 ([4]; OPM-2, 96 h, read-out: CTGlo Mean GI50 OPM2 96 h) was 287 nM and the GI50 ([4]; OPM-2, 144 h) was 117 nM. For the same compound, the “AUC (nM * % relative viability)” value ([4]; OPM2 cells, 6 days) was 649.8734 nM * % relative viability, the LD50 ([4]; OPM2 cells, 6 days, CellTiter-Glo) was 256.8053 nM and the RminAve ([4]; OPM2 cells, 6 days, negative = cell death vs T0) was −99.7805%. For the same compound, the “CTGlo Mean LD50 OPM2 96 h” value ([4]; payload alone, OPM2, 96 h) was 67.1 nM, the GI50 ([5]; NCI-H929, 96 h, read-out: CTGlo Mean GI50 H929 96 h) was 75.5 nM and the GI50 ([5]; NCI-H929, 144 h) was 119 nM. For the same compound, the “AUC (nM * % relative viability)” value ([5]; NCIH929 cells, 6 days) was 646.6007 nM * % relative viability, the LD50 ([5]; NCIH929 cells, 6 days, CellTiter-Glo) was 246.6292 nM and the RminAve ([5]; NCIH929 cells, 6 days, negative = cell death vs T0) was −99.8009%. The “CTGlo Mean LD50 H929 96 h” value ([5]; payload alone, H929, 96 h) was 201 nM, the GI50 ([6]; Homo sapiens, MOLP-8, 144 h) was 150 nM and the “AUC (nM * % relative viability)” value ([6]; MOLP8 cells, 6 days) was 690.1106 nM * % relative viability. For the same compound, the LD50 ([6]; MOLP8 cells, 6 days, CellTiter-Glo) was 533.6503 nM, the RminAve ([6]; MOLP8 cells, 6 days, negative = cell death vs T0) was −99.755% and the GI50 ([7]; Homo sapiens, LP-1, 144 h) was 112 nM. For the same compound, the “AUC (nM * % relative viability)” value ([7]; LP1 cells, 6 days) was 643.9226 nM * % relative viability, the LD50 ([7]; LP1 cells, 6 days, CellTiter-Glo) was 234.5168 nM and the RminAve ([7]; LP1 cells, 6 days, negative = cell death vs T0) was −99.7195%. The “AUC (nM * % relative viability)” value ([8]; EJM cells, 6 days) was 664.163 nM * % relative viability, the LD50 ([8]; EJM cells, 6 days, CellTiter-Glo) was 303.5191 nM and the RminAve ([8]; EJM cells, 6 days, negative = cell death vs T0) was −99.0579%. For the same compound, the GI50 ([8]; Homo sapiens, EJM, 144 h) was 140 nM, the GI50 ([9]; Homo sapiens, KMS-11, 144 h) was 232 nM and the “AUC (nM * % relative viability)” value ([9]; KMS11 cells, 6 days) was 706.5255 nM * % relative viability. It also gave an LD50 ([9]; KMS11 cells, 6 days, CellTiter-Glo) of 485.9409 nM, a RminAve ([9]; KMS11 cells, 6 days, negative = cell death vs T0) of −99.3474% and an efflux ratio at 2 h, 10 μM ([10]; B-A/A-B) of 1.5. For the same compound, the Papp A→B at 2 h, 10 μM ([10]; apical to basolateral, 10 μM, 2 hours, read-out: Permeability, Mean, Caco-2 A-B Perm) was 0.2 ×10⁻⁶ cm/s, the Papp B→A at 2 h, 10 μM ([10]; basolateral to apical, 10 μM, 2 hours, read-out: Permeability, Mean, Caco-2 B-A Perm) was 0.3 ×10⁻⁶ cm/s and the half-life at 20 μM [11] was 24 h.
